We go through nine compounds from patent US5744499A, “Apoptosis-modulating factors influencing the intracellular concentration of methional/malondialdehyde” (Centre International de Recherches Dermatologiques Galderma, priority 1994, dated 1998).

The subject of series [1] is BAF3 cells. Put plainly: Apoptosis of BAF3 cells, terminal deoxynucleotidyl transferase (TdT) test, flow cytometry. The note with it: 24 hours; compound A 50 μM, BCNU 40 μg/ml, or both; control 0.2. In kind it is cell-based, mouse. As to the method:
Effect of BCNU and of an inhibitor of the transaminase implicated in the transformation of 4-methylthio-2-oxobutanoic acid into methionine on apoptosis:
The DNA strand cuttings were marked with biotinylated dUTP (detected by avidin fluorescein), in situ, in the cells rendered permeable and fixed using the terminal DNA transferase deoxynucleotidyl test (TdT), as described in Gorczyca et al, Cancer Res., 53, 1945-1951 (1993). 1.5×10^6 BAF3 cells (cell line described above) seeded in 3 ml of a culture medium containing IL3 (Dulbecco-modified Eagle medium containing 6% fetal calf serum and 5% of a medium treated with Wehl-3B cells used in the IL3 source). The cells were incubated in the presence of compound A in a concentration of 50 μM, 40 μg/ml of BCNU, and the mixture of these two compounds (50 μM of compound A+40 μg/ml of BCNU) or in the absence of these two compounds (control). After a 24-hour incubation period of time, the cells were washed in PBS buffer and fixed in formaldehyde, then in ethanol, and maintained a -20° C. for 3 days. Next, the cells were again placed in suspension in 50 μl of a solution containing […] sodium cacodylate, pH=7.5, 1 mM CoCl2, 0.1 mM dithiothreitol, 0.05 mg/ml Bovine Serum Albumin, 10 units TdT (from Boerhringer calf thymus), 0.5 nmol dCTP, and 0.5 nmol dGTP for one hour at 37° C. […]
(In general: Flow cytometry measures light scatter and fluorescence of single cells or particles in a stream.)

In series [2] the test system is murine B16 Fl melanoma cells. The experiment in a line: Survival of mice grafted with B16 melanoma cells. The note with it: BCNU 0.1 mg/kg, Compound A 25 mg/kg. In kind it is in vivo, mouse. The procedure:
At t=0 day, 10^5 murine B16 Fl melanoma cells were injected into B6D2Fl mice (from the IFFA CREDO Company, France).
Table 5 reports the results corresponding to averages of the results obtained on three treated mice.
For the regimens containing multiple compounds, the quantities of each of the compounds used were identical to those of the regimens using the compounds by themselves.
Survival time was recorded beginning at t=0 day, as indicated above.
BCNU corresponds to N,N-Bis(2-chloroethyl)-N-nitrosourea. Compound A corresponds to the compound having formula (9), wherein X is a --OH radical.
Between the two regimens, the latter (to which methional was added) accounted for one-third of the mice surviving more than 60 days. The "average survival time" is the mean of the number of mice dying over the course of the experiment, i.e., within 60 days.
The procedure of the previous example was repeated, but the regimens and numbers of mice treated varied.
With respect to this latter regiment, the quantities corresponded to the quantities of compounds used alone. The percentage of long-term survivors corresponded to the percentage of mice which survived beyond 60 days.

In series [3] the test system is reactive oxygenated substances (H2 O2 and HO^-). Put plainly: Production of reactive oxygenated substances (H2O2 and HO-) in BAF3 cells, DCFH-DA flow cytometry. It is filed as cell-based, mouse. The note with it: for Fluorescence/10^6 cells: compound A 0 μM.
Series [4] relates to HeLa cells. Put plainly: Effect of metabolites on the growth of HeLa cells. In kind it is cell-based. The note with it: Homo sapiens, 72 h, three days at 37° C., estimated by protein content, average of 3 or 4 experiments, read-out: IC50 (concentration required to inhibit cell growth by 50%). As to the method: HeLa cells (0.5×10^6 per Petri dish) were cultured in 3 ml of a minimum essential Eagle medium containing 10% by weight dialyzed fetal calf serum. After four hours, methional (10 μM-1 mM), methionol (10 μM-20 mM), methylthiopropionic acid (MTPA) (1 μM-20 mM), L-methionine (1 μM-20 mM) or 4-methylthio-2-oxobutanoic acid (MTOB) (1 μM-20 mM) were added to each of the three dishes. After three days at 37° C., the cells were washed twice in a buffered, phosphatized saline medium having a pH of 7.5 (PBS medium) and collected in the same type of buffer.
Cell growth was assessed by measuring protein content (see technique described in O. H. Lowry, N. J. Rosebrouh, A. L. Farr, and R. J. Randall, J. Biol. Chem., 193, 265-275 (1951)) or the DNA content in the lysate using a bisbenzimide trihydrochloride solution (Hoechst 33258) (see W. D. Jarvis, R. N. Kolesnick, F. A. Fornari, R. S. Traylor, D. A. Gewirtz, and S. Grant, Proc. Natl. Acad. Sci. USA, 91, 73-77 (1994)), or by determining […] using 3-(4,5-dimethylthiazol-2-yl)-2,5-diphenyl-tetrazolium bromide (MTT) (see T. Mosmann, J. of Immunology, Methods, 65, 55-63 (1983)).
Each value of is the average of 3 or 4 experiments as estimated by protein content.
IC50 represents the concentration of compound required to inhibit cell growth by 50%.

Series [5] concerns HeLa cells. Put plainly: 2-oxobutyrate reversal of MTOB-induced growth inhibition of HeLa cells (methionine-free medium). In kind it is cell-based. As to the method:
HeLa cells (0.5×10^6 per Petri dish) were cultured in 3 ml of a minimum essential Eagle medium not containing methionine and containing 10% by weight dialyzed fetal calf serum. After four hours, 2-oxobutyrate (10 mM-40 mM) in the presence of 2 mM 4-methylthio-2-oxobutanoic acid (MTOB) were added. After three days at 37° C., the cells were washed twice in a buffered, phosphatized saline medium having a pH of 7.5 (PBS medium) and collected in the same type of buffer. Cell growth was measured in the same manner as in the preceding example.
Beginning at a level of 10 mM 2-oxobutyrate, inhibition decreased 2-3 times.

The next series has as its system BAF3-bcl2 cells. The procedure: (§1) The cells used were identical to those in the preceding example.
(§2) [^14 C]MTOB was prepared by oxidative deamination of [^14 C]Methionine, as described in Ogier et al, Biochem. Pharmacol., 45, 1631-1644 (1993). [^14 C]MTOB (5×10^6 dpm corresponding to 38.2 nmol) was added to a cellular BAF3-bO or BAF3-bcl2 suspension (2.4×10^5 cells/ml) in DMEM containing 6% fetal calf serum and 5% IL3. 39 hours later, the cells were washed twice in PBS and placed in suspension at a concentration of 9×10^5 cells/ml. [U ^14 C]MTOB (1.9×10^6 dpm corresponding to 14.5 nmol) was added to 10^8 cells, and, eight hours later, the cells were collected by centrifugation at 400 g for five minutes. The cellular sediments were solubilized using 1.5 ml of 0.5N NaOh for 30 minutes at 60° C. The total radioactivity in the cells was measured on 10 μl aliquots. Next, perchloric acid in a final concentration of 0.5N, then 200 μmol of 2,4-DNPH (2,4-dinitrophenylhyrazine, marketed by Merck) were added to the alkaline hydrolyzate obtained. The mixture was heated to 70° C. for 30 minutes, then centrifuged at 400 g for five minutes. The precipitate was solubilized ion 1 ml of 0.5N NaOH, and the radioactivity and protein content were determined. NaOH, pH=10, was added to the supernatant. The marked metabolites were extracted in ethylene acetate, and the organic phase was dried, acidified, and extracted in dichloromethane. The marked metabolites in the organic phase were separated out and identified using high-performance thin-layer chromatography and compared to the 2,4-DNPH derivatives of the reference compounds, then quantified by radiochromatography.

A further series relates to BAF3-bO cells. As to the method: as §1, §2
In series [6] the test system is BAF3 cells. The experiment in a line: DNA fragmentation in BAF3 cells, agarose gel electrophoresis. In kind it is cell-based, mouse. The note with it: 200-800 μM, medium with IL3, 8 hours. The procedure: K. L. Collins, J. Marvel, […] A. Lopez-[…]. Exp. Med., 176, 1043-1051 (1992)]. […] After 8 hours of contact, the cells were washed three times in a phosphatized buffered saline medium, pH=7.5 (PBS medium). […] The supernatants were decanted and analyzed as indicated below. For purposes of comparison, the same cultures were grown in a medium, either with IL3 (+IL3) or without IL3 (-IL3). The DNA fragments obtained were analyzed qualitatively using the method described, in particular, in W. D. Jarvis, […], and S. Grant, Proc. Natl. Acad. Sci. USA, 91, 73-77 (1994). The supernatants were treated with ribonuclease A (20 μg/ml) for 1 hour at 37° C., and with the proteinase R (100 μg/ml). The DNA was purified using phenol extraction and precipitated with ethanol. […] After electrophoresis (60V, 3 hours), the gels were stained with ethydium bromide.

[7] abbreviates: Table 5, three mice, daily injection for 15 days, Methional 25 mg/kg, control 20.5.

SMILES strings stand for the structures. pIC50: −log10 of the molar value.

In general, inhibition refers to the drop in the measured response relative to a control, in per cent.

On to `O=NN(CCCl)C(=O)NCCCl` [BCNU, N,N-Bis(2-chloroethyl)-N-nitrosourea], for which the “% apoptotic cells” value in the series with BAF3 cells [1] came to 2.3%. Moreover, the “Average Survival Time” value in series [2] (setting [7]) was found to be 24.5 days; in series [2] (Table 6, 6 or 10 mice, Methional 50 mg/kg, control 23.7), 32.5 days. Also, the “% long-term survivors (mice surviving beyond 60 days)” value in series [2] (Table 6, 6 or 10 mice, Methional 50 mg/kg, control 0) is given as 0%. The figures for the “Fluorescence/10^6 cells” value in series [3] (BCNU 10 μg/ml), in series [3] (BCNU 20 μg/ml) and in series [3] (BCNU 40 μg/ml) were 4%, 4% and 10%, respectively.
As to `CSCCC(=O)C(=O)O` [MTOB, 4-methylthio-2-oxobutanoic acid], in the series with HeLa cells [4], the pIC50 was 2.80. Besides, the inhibition at 2000 µM in the series with HeLa cells [5] (Homo sapiens, HeLa, 72 h, 2 mM MTOB alone, three days at 37° C.) was found to be 72%.
Consider `CCC(=O)C(=O)O` [2-oxobutyrate], for which the “decrease of growth inhibition” value in the series on HeLa cells [5] (beginning at 10 mM 2-oxobutyrate, with 2 mM MTOB) is recorded as 2-3 times.
Turning to `CSCCC(=O)C(=O)O` [[^14 C]MTOB], in the series on BAF3-bcl2 cells (BAF3-bcl2), the “2,4-DNPH malondialdehyde (2,4-DNPH pyrazole)” value is 0 dpm/mg of DNA, the “2,4-DNPH methional” value is 7,650 dpm/mg of DNA, the Free methional is on record as 51,440 dpm/mg of DNA and the “Spec. activity of cellular proteins” value is 20,850 dpm/mg protein. In addition, the “Total radioactivity/mg of DNA” value with BAF3-bcl2 cells (BAF3-bcl2, incubation 47 hours) is listed as 1,111,000 /mg of DNA. Further, the “marked malondialdehyde formation, result in words” value in the series with BAF3-bcl2 cells (BAF3-bcl2 cell extracts) is listed as “no radioactivity with respect to the malondialdehyde was detected”. Further, in the series on BAF3-bcl2 cells (BAF3-bcl2 compared with BAF3-bO), the “increase in radioactivity of free methionine (printed metmonine) in BAF3-bcl2 versus BAF3-bO cells” value is recorded as 40%. For the same compound, in the series with BAF3-bO cells (BAF3-bO), the “2,4-DNPH malondialdehyde (2,4-DNPH pyrazole)” value is reported as 800 dpm/mg of DNA, the “2,4-DNPH methional” value is 14,050 dpm/mg of DNA, the Free methional is 36,820 dpm/mg of DNA and the “Spec. activity of cellular proteins” value is 23,500 dpm/mg protein. Also, in the series with BAF3-bO cells (BAF3-bO compared with BAF3-bcl2), the “radioactivity in methional higher in BAF3-bO than in BAF3-bcl2 cells” value was found to be 80%. Moreover, the “Total radioactivity/mg of DNA” value in the series with BAF3-bO cells (BAF3-bO, incubation 47 hours) is given as 1,252,000 /mg of DNA.
On to `CSCCC(NCc1c(CO)cnc(C)c1O)C(=O)OC(C)(C)C` (stereo not drawn) [Compound A], for which the “% apoptotic cells” value in the series on BAF3 cells [1] is on record as 0.3%. The “Average Survival Time” value in series [2] (setting [7]) came out at 21.9 days. Also, in series [3] (compound A 50 μM with BCNU), the “effect on increase of HO^- resulting from increased BCNU concentration” value is listed as “suppressed the increase of HO^-”.
Turning to `CSCC[C@H](N)C(=O)O` [L methionine, L-methionine], in the series on HeLa cells [4], the pIC50 was less than 1.70.
With `CCCO` [propanol], in the series on BAF3 cells [6], the “triggering of apoptosis (ladder of DNA fragments of 180 to 200 base pairs on gel)” value is “the gel did not possess this characteristic”.
As to `CSCCCO` [methionol], in the series on HeLa cells [4], the pIC50 is less than 1.70.
The same measure, in the same setting: next, `CSCCC(=O)O` [MTPA, methylthiopropionic acid]: 2.00.
